Assay in all cases: biochemical
What all share (type): binding

One test deals with HLA DRB1*07:01 (Homo sapiens, UniProt P01903+P01911, A100R/A102G/A103Q/D57E/D86V/E43K/F76Y/K127E/L162R/M171V/P40G/Q125H/Q99D/R33Q/R42Y/R54Q/S133A/S66F/T210M/V115G/Y107V/Y59L/Y89S). Particulars: binder threshold 1,000 nM, read-out: In vitro (IC50 nM) DRB1*07:01.
The target of a further test is HLA DRB1*08:02 (Homo sapiens, UniProt P01903+P01911, A100R/A103L/A169T/F76Y/H45Y/I96F/K41T/L162R/M171V/P40S/Q125H/Q178H/Q39Y/Q99D/R218S/R42G/S66Y/V115G/W38E). Particulars: binder threshold 1,000 nM, read-out: In vitro (IC50 nM) DRB1*08:02.
In a further test the target is HLA DRB1*09:01 (Homo sapiens, UniProt P01903+P01911, A100R/A103E/D57H/D86V/F55Y/F60I/F76Y/I96F/K127E/L162R/M171V/P40D/Q125H/Q99R/R33Q/R42F/S133A/S66N/T210M/V115G/W38K/Y107V/Y59G/Y89S). The note with it: binder threshold 1,000 nM, read-out: In vitro (IC50 nM) DRB1*09:01.
The target of the next test is HLA DRB1*11:01 (Homo sapiens, UniProt P01903+P01911, A100R/A169T/A87E/I96F/K41T/L162R/M171V/P40S/Q125H/Q178H/Q39Y/Q99D/R42S/S66Y/T262R/V115G/W38E). The note with it: binder threshold 1,000 nM, read-out: In vitro (IC50 nM) DRB1*11:01.
Chain of HLA DRB1*11:01 (P01903 26-254, other chains not shown): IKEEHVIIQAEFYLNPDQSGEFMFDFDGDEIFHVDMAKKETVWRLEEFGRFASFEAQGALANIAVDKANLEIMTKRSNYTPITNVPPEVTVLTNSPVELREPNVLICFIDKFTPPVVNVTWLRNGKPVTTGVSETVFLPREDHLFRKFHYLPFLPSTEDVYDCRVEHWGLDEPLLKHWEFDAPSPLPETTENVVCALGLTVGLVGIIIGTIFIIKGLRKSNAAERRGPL
A further test has as its target HLA DRB1*15:01 (Homo sapiens, UniProt P01903+P01911). Particulars: binder threshold 1,000 nM, read-out: In vitro (IC50 nM) DRB1*15:01.
The target in another test is HLA DRB1*01:01 (Homo sapiens, UniProt P01903+P01911, A100R/D57E/F55L/F60I/F76Y/I96L/L162R/M171V/P40L/Q125E/R42F/V115G/Y59C). Particulars: binder threshold 1,000 nM, read-out: In vitro (IC50 nM) DRB1*01:01.
The target of another test is HLA DRB1*12:01 (Homo sapiens, UniProt P01903+P01911, A100R/A169T/D57E/D86V/F55L/H45Y/K41T/L162R/M171V/P40S/Q125H/Q178H/Q39Y/Q99D/R42G/S66L/T262R/V114A/V67L/W38E/Y59H/Y61H/Y89S). Particulars: binder threshold 1,000 nM, read-out: In vitro (IC50 nM) DRB1*12:01.
For the next test, the target named is HLA DRB1*04:01 (Homo sapiens, UniProt P01903+P01911, A100K/A169T/F76Y/I96L/K127E/L162R/M171V/N62H/P40V/Q125Y/R42H/S133A/S149N/S66Y/V115G/V209L/W38E). Particulars: binder threshold 1,000 nM, read-out: In vitro (IC50 nM) DRB1*04:01.
For the next test, the target named is HLA DRB1*04:05 (Homo sapiens, UniProt P01903+P01911, A100R/A169T/D86S/F76Y/I96L/K127E/L162R/M171V/N62H/P40V/Q125Y/R42H/S133A/S149N/S66Y/V115G/V209L/W38E). Particulars: binder threshold 1,000 nM, read-out: In vitro (IC50 nM) DRB1*04:05.
Another test concerns the target HLA DRB1*03:01 (Homo sapiens, UniProt P01903+P01911, A100K/A102G/A103R/A169T/F55Y/I96L/K41T/L162R/M171V/P40S/Q125H/Q178H/Q39Y/R42S/S66N/T106N/T262R/W38E/Y61H). The note with it: binder threshold 1,000 nM, read-out: In vitro (IC50 nM) DRB1*03:01.

We go through five compounds from paper PMC10196118, “Evidence for broad cross-reactivity of the SARS-CoV-2 NSP12-directed CD4^+ T-cell response with pre-primed responses directed against common cold coronaviruses” (Frontiers in Immunology, 2023).

SMILES strings stand for the structures.

One may read the IC50 as the concentration at which inhibition is half-maximal.

Chain of HLA DRB1*03:01 (P01903 26-254, other chains not shown): as above

On to `CSCC[C@H](NC(=O)[C@H](CO)NC(=O)[C@H](Cc1ccccc1)NC(=O)[C@H](Cc1c[nH]cn1)NC(=O)[C@H](CCCCN)NC(=O)[C@H](CCCNC(=N)N)NC(=O)[C@H](CC(C)C)NC(=O)[C@H](Cc1ccc(O)cc1)NC(=O)[C@H](C)NC(=O)[C@H](Cc1ccc(O)cc1)NC(=O)[C@H](Cc1ccccc1)NC(=O)[C@H](CCC(=O)O)NC(=O)[C@H](CC(N)=O)NC(=O)[C@@H](NC(=O)[C@@H](N)Cc1ccccc1)C(C)C)C(=O)O` [NSP12_149], for which the IC50 on HLA DRB1*07:01 is 3830 nM; at HLA DRB1*08:02, 828 nM; at HLA DRB1*09:01, 2510 nM; at HLA DRB1*11:01, 70 nM; at HLA DRB1*15:01 it was 1250 nM; at HLA DRB1*01:01, 36100 nM. Besides, the 50% inhibitory concentration (IC50) on HLA DRB1*12:01 was determined as 2540 nM; on HLA DRB1*04:01, 8370 nM.
In the case of `CC[C@H](C)[C@H](NC(=O)[C@H](CC(=O)O)NC(=O)[C@H](CS)NC(=O)[C@H](CCSC)NC(=O)[C@@H](NC(=O)[C@@H]1CCCN1C(=O)[C@H](CC(C)C)NC(=O)[C@H](CC(N)=O)NC(=O)[C@H](Cc1ccc(O)cc1)NC(=O)[C@H](CCCNC(=N)N)NC(=O)[C@@H](N)Cc1ccc(O)cc1)[C@@H](C)O)C(=O)N[C@@H](CCCNC(=N)N)C(=O)N[C@@H](CCC(N)=O)C(=O)N[C@@H](CC(C)C)C(=O)N[C@@H](CC(C)C)C(=O)O` [Peptide 92], the IC50 is 1840 nM on HLA DRB1*07:01; 1490 nM at HLA DRB1*09:01; 8940 nM at HLA DRB1*11:01; 4640 nM on HLA DRB1*04:05; 2910 nM at HLA DRB1*15:01; 12000 nM on HLA DRB1*01:01. Moreover, the IC50 at HLA DRB1*12:01 came out at 5120 nM; at HLA DRB1*04:01, 5310 nM.
On to `CC(C)C[C@H](NC(=O)[C@H](C)NC(=O)[C@H](CC(=O)O)NC(=O)[C@H](CCC(N)=O)NC(=O)[C@H](CC(=O)O)NC(=O)[C@H](CCC(=O)O)NC(=O)[C@@H](N)Cc1ccc(O)cc1)C(=O)N[C@@H](Cc1ccccc1)C(=O)N[C@@H](C)C(=O)N[C@@H](Cc1ccc(O)cc1)C(=O)N[C@H](C(=O)N[C@@H](CCCCN)C(=O)N[C@@H](CCCNC(=N)N)C(=O)N[C@@H](CC(N)=O)C(=O)N[C@H](C(=O)O)C(C)C)[C@@H](C)O` [Peptide 105], for which the IC50 was 35 nM at HLA DRB1*07:01; 39400 nM on HLA DRB1*03:01; 495 nM on HLA DRB1*08:02; 8570 nM at HLA DRB1*09:01; 21 nM on HLA DRB1*11:01; 480 nM on HLA DRB1*15:01. Also, the IC50 at HLA DRB1*01:01 is 16000 nM; at HLA DRB1*04:01 it was 3090 nM.
Regarding `CC(C)[C@H](NC(=O)[C@H](CO)NC(=O)[C@H](CC(N)=O)NC(=O)[C@H](C)NC(=O)[C@H](Cc1ccc(O)cc1)NC(=O)[C@H](C)NC(=O)[C@@H](NC(=O)[C@@H](NC(=O)[C@H](C)NC(=O)[C@H](CC(=O)O)NC(=O)CNC(=O)[C@H](CO)NC(=O)[C@@H](N)CO)[C@@H](C)O)[C@@H](C)O)C(=O)N[C@@H](Cc1ccccc1)C(=O)N[C@@H](CC(N)=O)C(=O)O` [Peptide 137], the IC50 on HLA DRB1*07:01 was determined as 3970 nM; at HLA DRB1*09:01, 197 nM; on HLA DRB1*11:01, 15900 nM; on HLA DRB1*04:05, 27200 nM; at HLA DRB1*15:01, 567 nM; on HLA DRB1*01:01, 1800 nM. Further, the values for the IC50 at HLA DRB1*12:01 and at HLA DRB1*04:01 were 22700 nM and 5180 nM, respectively.
As for `CC(C)C[C@H](NC(=O)[C@H](Cc1ccc(O)cc1)NC(=O)[C@H](C)NC(=O)[C@H](Cc1ccc(O)cc1)NC(=O)[C@H](Cc1ccccc1)NC(=O)[C@H](CCC(=O)O)NC(=O)[C@H](CC(N)=O)NC(=O)[C@@H](NC(=O)[C@H](Cc1ccccc1)NC(=O)[C@H](CC(=O)O)NC(=O)[C@@H](NC(=O)[C@H](CC(=O)O)NC(=O)[C@@H](NC(=O)[C@@H](N)CC(=O)O)C(C)C)[C@@H](C)O)C(C)C)C(=O)N[C@@H](CCCNC(=N)N)C(=O)O` [Peptide 148], the IC50 worked out at 28500 nM at HLA DRB1*03:01; 2200 nM at HLA DRB1*08:02; 6950 nM on HLA DRB1*09:01; 949 nM on HLA DRB1*11:01; 1180 nM on HLA DRB1*15:01; 856 nM at HLA DRB1*01:01. On HLA DRB1*04:01, the IC50 is 16900 nM.
